Common to all, as to test: Melanoma cytotoxicity assay (resazurin)
Assay type in all cases: cell-based
(Alamar Blue is a resazurin reagent that responds to reducing activity.)

Series [1] has as its system SK-MEL-5. Particulars: SK-MEL-5 melanoma cells, 24 hours with compound, resazurin; concentration not given. The procedure: (§1) Cytotoxicity Assay: Melanoma cells (˜4000 cells in each well) were incubated in a 96 well plates at 37° C. in 5% CO2 for 24 hours. Compounds were added in triplicates and the plate was further incubated for 24 hours. DMSO and dacarbazine were added as technical and positive controls respectively. Next day resazurin was added and the plate was further incubated for 6 hours followed by reading the plate at 544 nm (excitation) and 590 nm (emission) using BMG Labtech Fluostar Optima plate reader. IC50 values were determined by using Graphpad Prism.
(§2) On day 1, the cell line trypsinized and centrifuged to form cell pellet. The pellet was diluted in media, then counted using Countess automated cell counter. Approximately 4000 cells (198 uL) per well plated in […]. A control well of 200 uL growth media was also prepared. Wells closest to plate perimeter were filled with 200 uL PBS to prevent inner well evaporation. The 96 well plates are incubated in 37° C. incubator at 5% CO2 for 24 hours.
(§3) On day 2, compounds were added (in triplicate) along with DMSO/Dacarbazine controls (2 uL) added to bring wells to volume of 200 μL. The 96 well plates are incubated in 37° C. incubator at 5% CO2 for 24 hours.
(§4) On day 3, 40 μL of 0.15 mg/ml reszurin solution added to wells. Samples were placed in a 37° C. incubator at 5% CO2 for 6 hours. Excitation and emission for fluorescence measured at 544 nm and 590 nm using BMG Labtech Fluostar Optima plate reader
(§5) Percent viability determined by taking average of each triplicate well fluorescence and subtracting GM well reading to remove the background signal. This difference is then divided by the average of the negative control (DMSO) wells to determine percent viability.
(§6) IC50s were determined by using cereal dilution of compound to determine viability. Viabilities and concentration of cells are analyzed in Graphpad Prism by creating sigmoidal curve graph, which will determine the IC50 concentration.
(§7) We analyzed the ability of the thiazole-androstane derivatives to inhibit growth in various melanoma cell lines. The growth inhibition against melanoma cell lines of various compound is shown below in Tables 19 and 20. Inhibition results are reported as the IC50 concentration in μM of the indicated compound or as the percent viability […] of the indicated compound. NA=not available.

Series [2] deals with SK-MEL-25. Particulars: SK-MEL-25 melanoma cells, 24 hours with compound, resazurin; concentration not given. Here is the method:
as §1, §2, §3, §4, §5, §6, §7

The subject of series [3] is SK-MEL-28. Particulars: for SK-MEL-28 (% inhibition): SK-MEL-28 melanoma cells, 24 hours with compound, resazurin, concentration not given; for SK-MEL-28 (% viability): human, 24 h. Here is the method:
as §1, §2, §3, §4, §5, §6, §7

Take `C[C@]12CCc3sc(Nc4ccccn4)nc3C1=CC[C@@H]1[C@@H]2CC[C@]2(C)C(=O)CC[C@@H]12` [IIa.21, (1S,2R,13R,14S,18S)-2,18-dimethyl-7-(2-pyridylamino)-6-thia-8-azapentacyclo[11.7.0.02,10.05,9.014,18]icosa-5(9),7,10-trien-17-one]: the “SK-MEL-5 (% inhibition)” value in series [1] stood at 88%. Further, the “SK-MEL-25 (% inhibition)” value in series [2] came to 58%. The “SK-MEL-28 (% inhibition)” value in series [3] came out at 93%.
On to `C[C@]12CC[C@H]3[C@@H](CC=C4c5sc(-c6ccccn6)nc5CC[C@@]43C)[C@@H]1CC[C@@H]2O` [III.4, (1S,2R,13R,14S,17S,18S)-2,18-dimethyl-7-(2-pyridyl)-8-thia-6-azapentacyclo[11.7.0.02,10.05,9.014,18]icosa-5(9),6,10-trien-17-ol], for which, in series [3], the “SK-MEL-28 (% viability)” value is 86%.
On to `CCNc1nc2c(s1)CC[C@@]1(C)C2=CC[C@@H]2[C@@H]1CC[C@]1(C)C(=O)CC[C@@H]21` [IIa.30, (1S,2R,13R,14S,18S)-7-(ethylamino)-2,18-dimethyl-6-thia-8-azapentacyclo[11.7.0.02,10.05,9.014,18]icosa-5(9),7,10-trien-17-one], for which the “SK-MEL-5 (% inhibition)” value in series [1] amounted to 26%. For the same compound, the “SK-MEL-25 (% inhibition)” value in series [2] was determined as 4%. Also, the “SK-MEL-28 (% inhibition)” value in series [3] is reported as 67%.
`C[C@]12CCc3nc(Nc4ccc(F)cc4)sc3C1=CC[C@@H]1[C@@H]2CC[C@]2(C)C(=O)CC[C@@H]12` [IIa.9, (1S,2R,13R,14S,18S)-7-(4-fluoroanilino)-2,18-dimethyl-8-thia-6-azapentacyclo[11.7.0.02,10.05,9.014,18]icosa-5(9),6,10-trien-17-one]: the “SK-MEL-5 (% inhibition)” value in series [1] was found to be 58%. Also, the “SK-MEL-25 (% inhibition)” value in series [2] worked out at 61%. In addition, the “SK-MEL-28 (% inhibition)” value in series [3] amounted to 90%.
For the compound `C[C@]12CCc3sc(N)nc3C1=CC[C@@H]1[C@@H]2CC[C@]2(C)C(=O)CC[C@@H]12` [IIa.1, (1S,2R,13R,14S,18S)-7-amino-2,18-dimethyl-6-thia-8-azapentacyclo[11.7.0.02,10.05,9.014,18]icosa-5(9),7,10-trien-17-one], the “SK-MEL-5 (% inhibition)” value in series [1] was determined as 29%. In addition, in series [3], the “SK-MEL-28 (% inhibition)” value was found to be 1%.
Regarding `C[C@]12CCc3sc(Nc4ncccn4)nc3C1=CC[C@@H]1[C@@H]2CC[C@]2(C)C(=O)CC[C@@H]12` [IIa.22, (1S,2R,13R,14S,18S)-2,18-dimethyl-7-(pyrimidin-2-ylamino)-6-thia-8-azapentacyclo[11.7.0.02,10.05,9.014,18]icosa-5(9),7,10-trien-17-one], the “SK-MEL-5 (% inhibition)” value in series [1] worked out at 15%. Also, the “SK-MEL-25 (% inhibition)” value in series [2] was 3%. Besides, the “SK-MEL-28 (% inhibition)” value in series [3] is on record as 4%.
The like results for `C[C@]12CCc3sc(Nc4ccc(C(=O)O)cc4)nc3C1=CC[C@@H]1[C@@H]2CC[C@]2(C)C(=O)CC[C@@H]12` [IIa.23, 4-[[(1S,2R,13R,14S,18S)-2,18-dimethyl-17-oxo-6-thia-8-azapentacyclo[11.7.0.02,10.05,9.014,18]icosa-5(9),7,10-trien-7-yl]amino]benzoic acid] were, in that order, 43%, 71% and 78%.
For the compound `C[C@]12CC[C@H]3[C@@H](CC=C4c5sc(-c6ccc(O)c(O)c6)nc5CC[C@@]43C)[C@@H]1CC[C@@H]2O` [III.7, 4-[(1S,2R,13R,14S,17S,18S)-17-hydroxy-2,18-dimethyl-8-thia-6-azapentacyclo[11.7.0.02,10.05,9.014,18]icosa-5(9),6,10-trien-7-yl]benzene-1,2-diol], in series [3], the “SK-MEL-28 (% viability)” value was 11%.
As to `C[C@]12CCc3sc(Nc4cccc(C(=O)O)c4)nc3C1=CC[C@@H]1[C@@H]2CC[C@]2(C)C(=O)CC[C@@H]12` [IIa.34, 3-[[(1S,2R,13R,14S,18S)-2,18-dimethyl-17-oxo-6-thia-8-azapentacyclo[11.7.0.02,10.05,9.014,18]icosa-5(9),7,10-trien-7-yl]amino]benzoic acid], the “SK-MEL-5 (% inhibition)” value in series [1] came out at 80%. Also, the “SK-MEL-25 (% inhibition)” value in series [2] is given as 59%. The “SK-MEL-28 (% inhibition)” value in series [3] is 73%.
On to `Cc1nc2c(s1)C1=CC[C@H]3[C@@H]4CC[C@H](O)[C@@]4(C)CC[C@@H]3[C@@]1(C)CC2` [III.1, (1S,2R,13R,14S,17S,18S)-2,7,18-trimethyl-8-thia-6-azapentacyclo[11.7.0.02,10.05,9.014,18]icosa-5(9),6,10-trien-17-ol], for which, in series [3], the “SK-MEL-28 (% viability)” value turned out to be 58%.
Turning to `C=CCNc1nc2c(s1)CC[C@@]1(C)C2=CC[C@@H]2[C@@H]1CC[C@]1(C)C(=O)CC[C@@H]21` [IIa.3, (1S,2R,13R,14S,18S)-7-(allylamino)-2,18-dimethyl-6-thia-8-azapentacyclo[11.7.0.02,10.05,9.014,18]icosa-5(9),7,10-trien-17-one], the “SK-MEL-5 (% inhibition)” value in series [1] is recorded as 57%. Further, in series [2], the “SK-MEL-25 (% inhibition)” value was 68%. In addition, the “SK-MEL-28 (% inhibition)” value in series [3] turned out to be 65%.
Regarding `C[C@]12CCc3sc(Nc4ccccc4)nc3C1=CC[C@@H]1[C@@H]2CC[C@]2(C)C(=O)CC[C@@H]12` [IIa.7, (1S,2R,13R,14S,18S)-7-anilino-2,18-dimethyl-6-thia-8-azapentacyclo[11.7.0.02,10.05,9.014,18]icosa-5(9),7,10-trien-17-one], in series [3], the “SK-MEL-28 (% inhibition)” value is given as 43%.
As to `CC(=O)Nc1nc2c(s1)C1=CC[C@@H]3[C@H](CC[C@]4(C)C(=O)CC[C@@H]34)[C@@]1(C)CC2` [IIb.1, N-[(1S,2R,13R,14S,18S)-2,18-dimethyl-17-oxo-8-thia-6-azapentacyclo[11.7.0.02,10.05,9.014,18]icosa-5(9),6,10-trien-7-yl]acetamide], the “SK-MEL-5 (% inhibition)” value in series [1] is listed as 5%. For the same compound, the “SK-MEL-25 (% inhibition)” value in series [2] stood at 31%. In addition, in series [3], the “SK-MEL-28 (% inhibition)” value is given as 16%.
The like results for `CCCCNC1=NC2C3=CC[C@@H]4[C@H](CC[C@]5(C)C(=O)CC[C@@H]45)[C@@]3(C)CCC2S1` (stereo partly drawn) [IIa.31, (1S,2R,13R,14S,18S)-7-(butylamino)-2,18-dimethyl-6-thia-8-azapentacyclo[11.7.0.02,10.05,9.014,18]icosa-7,10-dien-17-one] were, in that order, 69%, 74% and 93%.
As to `C[C@]12CCc3sc(NCCCN4CCOCC4)nc3C1=CC[C@@H]1[C@@H]2CC[C@]2(C)C(=O)CC[C@@H]12` [IIa.4, (1S,2R,13R,14S,18S)-2,18-dimethyl-7-(3-morpholinopropylamino)-6-thia-8-azapentacyclo[11.7.0.02,10.05,9.014,18]icosa-5(9),7,10-trien-17-one], in series [1], the “SK-MEL-5 (% inhibition)” value came to 74%. In series [2], the “SK-MEL-25 (% inhibition)” value is listed as 66%.
For `C[C@]12CC[C@H]3[C@@H](CC=C4c5sc(-c6ccc(Br)cc6)nc5CC[C@@]43C)[C@@H]1CC[C@@H]2O` [III.19, (1S,2R,13R,14S,17S,18S)-7-(4-bromophenyl)-2,18-dimethyl-8-thia-6-azapentacyclo[11.7.0.02,10.05,9.014,18]icosa-5(9),6,10-trien-17-ol], the “SK-MEL-28 (% viability)” value in series [3] is given as 58%.
Same read-out and setting: next, `C[C@]12CC[C@H]3[C@@H](CC=C4c5sc(-c6ccccc6O)nc5CC[C@@]43C)[C@@H]1CC[C@@H]2O` [III.6, (1S,2R,13R,14S,17S,18S)-7-(2-hydroxyphenyl)-2,18-dimethyl-8-thia-6-azapentacyclo[11.7.0.02,10.05,9.014,18]icosa-5(9),6,10-trien-17-ol]: 32%.

These data come from patent US20250296953A1, “3,4-THIAZOLO-STEROIDS AND METHODS OF MAKING AND USING THE SAME” (Arkansas State University - Jonesboro, priority 2018, published 2025).
